Assay results as given in patent US20240116985A1, “STAPLED PEPTIDES AND METHODS THEREOF” (priority 2020, published 2024).
pIC50: −log10 of the molar value. ≈ marks a conversion by molar mass, not a printed value. Where two headings read alike, the source gives them in different places.

Experiments:
[1] = biological target: T1, full-length beta-Catenin (Uniprot ID P35222) (Homo sapiens, UniProt P35222); assay: Fluorescence polarization IC50 (beta-catenin / 5FAM-TCF4 10-53 competition); format: binding; details: read-out: beta-Catenin FP IC50
T1 construct: 10 nM full-length beta-Catenin (Uniprot ID P35222)
T1 sequence (P35222 1-781): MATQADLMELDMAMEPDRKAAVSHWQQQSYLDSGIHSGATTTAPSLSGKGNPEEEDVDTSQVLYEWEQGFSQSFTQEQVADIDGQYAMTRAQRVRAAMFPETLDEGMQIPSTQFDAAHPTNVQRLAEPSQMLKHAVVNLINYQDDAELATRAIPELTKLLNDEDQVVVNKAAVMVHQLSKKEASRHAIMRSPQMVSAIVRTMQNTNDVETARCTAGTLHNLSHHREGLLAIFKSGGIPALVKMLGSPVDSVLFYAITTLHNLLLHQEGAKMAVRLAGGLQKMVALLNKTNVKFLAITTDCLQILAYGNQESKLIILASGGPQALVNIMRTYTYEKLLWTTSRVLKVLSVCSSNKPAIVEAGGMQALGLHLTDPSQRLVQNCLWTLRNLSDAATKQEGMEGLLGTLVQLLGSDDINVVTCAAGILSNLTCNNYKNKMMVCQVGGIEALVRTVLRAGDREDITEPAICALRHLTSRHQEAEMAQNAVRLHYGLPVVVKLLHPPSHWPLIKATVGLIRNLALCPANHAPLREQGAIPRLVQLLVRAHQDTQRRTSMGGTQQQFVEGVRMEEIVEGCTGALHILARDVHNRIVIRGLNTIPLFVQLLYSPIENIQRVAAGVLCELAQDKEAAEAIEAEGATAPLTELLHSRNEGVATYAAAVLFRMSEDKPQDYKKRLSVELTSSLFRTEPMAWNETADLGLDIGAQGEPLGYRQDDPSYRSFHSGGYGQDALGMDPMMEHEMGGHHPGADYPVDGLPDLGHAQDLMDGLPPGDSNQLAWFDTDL

CHI Log D procedure = format: physicochemical; details: pH 7.4, CHI Log D
Solubility in PBS = format: physicochemical
Method in brief: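 HPLC quantitation of peptide remaining in the PBS supernatant after ultracentrifugation, referenced to a 50 μM solution in DMSO.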

[2] = biological target: T2, beta-catenin/TCF4 engagement (Homo sapiens, UniProt P35222); assay: Nano-BRET target engagement assay (B-cat-Halo & TCF4-Luc in HEK293 cells); format: cell-based
T2 construct: expressed in transfected cells; host or cells: HEK293
T2 sequence (P35222 1-781): T1 sequence (P35222 1-781)

[3] = absolute IC50, read-out: NanoBRET Abs IC50

| SMILES | pIC50 [1] | chromatographic logD (CHI Log D procedure) | Solubility (Solubility in PBS; Solubility (uM)) | pIC50 ([2]; read-out: NanoBRET Abs IC50) | Solubility (Solubility in PBS) | pIC50 ([2]; read-out: NanoBRET IC50) | pIC50 ([1]; fluorescence polarization) | pIC50 [2, 3] |
| --- | --- | --- | --- | --- | --- | --- | --- | --- |
| COc1cccc(C[C@@H]2NC(=O)[C@H](C)NC(=O)[C@H](C)NC(=O)[C@H](CC(=O)O)NC(=O)[C@H](CC(=O)O)NC(=O)C3(CCCC=CCCCOC(=O)N4CC[C@@](C(=O)N[C@@H](Cc5ccccc5Cl)C(=O)N[C@@H](Cc5csc6ccccc56)C(=O)N[C@@H](CCC(N)=O)C(N)=O)(C4)NC(=O)[C@H](CO)NC2=O)CCCC=CC[C@]2(CCCN2C(C)=O)C(=O)N[C@@H](CC(=O)O)C(=O)N[C@@H](CC2CCCCC2)C(=O)N3)c1 (stereo partly drawn) [I-1118, Ac-PL3-Asp-Cha-B5-Asp-Asp-Ala-Ala-3OMeF-Ser-PyrS2-2C1F-BztA-Gln-NH2] | 7.62 | 2.34 | 37 µM (≈ 73.1 µg/mL) | 4.53 | – | – | – | – |
| CC(=O)N1CCC[C@]12CC=CCCCC1(CCCC=CCCCOC(=O)N3CC[C@@](C(=O)N[C@@H](Cc4ccsc4)C(=O)N[C@@H](Cc4csc5ccccc45)C(=O)N[C@@H](Cc4c[nH]cn4)C(N)=O)(C3)NC(=O)[C@H](CC(N)=O)NC(=O)[C@H](Cc3ccccc3)NC(=O)[C@H](C)NC(=O)[C@H](C)NC(=O)[C@H](CC(C)C)NC(=O)[C@H](CC(=O)O)NC1=O)NC(=O)[C@H](CC(C)(C)C)NC(=O)[C@H](CC(=O)O)NC2=O (stereo partly drawn) [I-847, Ac-PL3-Asp-Npg-B5-Asp-Leu-Ala-Ala-Phe-Asn-PyrS2-3Thi-BztA-His-NH2] | 7.55 | 2.51 | – | < 4.70 | 10 µM (≈ 19.3 µg/mL) | – | – | – |
| CC(=O)N1CCC[C@]12CC=CCCCC1(CCCC=CCCCOC(=O)N3CC[C@@](C(=O)N[C@@H](Cc4ccsc4)C(=O)N[C@@H](Cc4csc5ccccc45)C(N)=O)(C3)NC(=O)[C@H](CC(N)=O)NC(=O)[C@H](Cc3ccccc3)NC(=O)[C@H](C)NC(=O)[C@H](C)NC(=O)[C@H](CCC(=O)O)NC(=O)[C@H](CC(=O)O)NC1=O)NC(=O)[C@H](CC(C)(C)C)NC(=O)[C@H](CC(=O)O)NC2=O (stereo partly drawn) [I-786, Ac-PL3-Asp-Npg-B5-Asp-Glu-Ala-Ala-Phe-Asn-PyrS2-3Thi-BztA-NH2] | 8.10 | 2.3 | 39 µM (≈ 70.4 µg/mL) | 4.53 | – | 4.77 | – | – |
| CC(=O)N1CCC[C@]12CC=CCCCC1(CCCC=CCCCOC(=O)N3CC[C@@](C(=O)N[C@@H](Cc4ccsc4)C(=O)N[C@@H](Cc4csc5ccccc45)C(=O)N[C@@H](CCC(N)=O)C(=O)N[C@@H](CCCCNC(=O)C45CC6(C)CC(C)(CC(C)(C6)C4)C5)C(N)=O)(C3)NC(=O)[C@H](CC(N)=O)NC(=O)[C@H](Cc3ccccc3)NC(=O)[C@H](C)NC(=O)[C@H](C)NC(=O)[C@H](CC(=O)O)NC(=O)[C@H](CC(=O)O)NC1=O)NC(=O)[C@H](CC(C)(C)C)NC(=O)[C@H](CC(=O)O)NC2=O (stereo partly drawn) [I-920, Ac-PL3-Asp-Npg-B5-Asp-Asp-Ala-Ala-Phe-Asn-PyrS2-3Thi-BztA-Gln-[Me3AdamantC]Lys-NH2] | 6.93 | 3.08 | – | 4.75 | 50 µM (≈ 113 µg/mL) | – | – | – |
| CC(=O)N1CCC[C@]12CC=CCCCC1(CCCC=CCCCOC(=O)N3CC[C@@](C(=O)N[C@@H](Cc4ccsc4)C(=O)N[C@@H](Cc4c[nH]c5ccccc45)C(=O)N[C@@H](Cc4c[nH]cn4)C(N)=O)(C3)NC(=O)[C@H](CC(N)=O)NC(=O)[C@H](Cc3ccccc3)NC(=O)[C@H](C)NC(=O)[C@H](C)NC(=O)[C@H](CC(=O)O)NC(=O)[C@H](CC(=O)O)NC1=O)NC(=O)[C@H](CC(C)(C)C)NC(=O)[C@H](CC(=O)O)NC2=O (stereo partly drawn) [I-792, Ac-PL3-Asp-Npg-B5-Asp-Asp-Ala-Ala-Phe-Asn-PyrS2-3Thi-Trp-His-NH2] | 7.70 | 1.96 | 33 µM (≈ 63 µg/mL) | < 4.70 | – | – | – | – |
| COCCOCCOCCOCCOCCOCCC(=O)NCCCC[C@H](NC(=O)[C@H](CCC(N)=O)NC(=O)[C@H](Cc1csc2ccccc12)NC(=O)[C@H](Cc1ccsc1)NC(=O)[C@]12CCN(C1)C(=O)OCCCC=CCCCC1(CCCC=CC[C@]3(CCCN3C(C)=O)C(=O)N[C@@H](CC(=O)O)C(=O)N[C@@H](CC(C)(C)C)C(=O)N1)C(=O)N[C@@H](CC(=O)O)C(=O)N[C@@H](CC(=O)O)C(=O)N[C@@H](C)C(=O)N[C@@H](C)C(=O)N[C@@H](Cc1ccccc1)C(=O)N[C@@H](CC(N)=O)C(=O)N2)C(N)=O (stereo partly drawn) [I-913, Ac-PL3-Asp-Npg-B5-Asp-Asp-Ala-Ala-Phe-Asn-PyrS2-3Thi-BztA-Gln-[mPEG6]Lys-NH2] | 8.00 | 1.82 | 49 µM (≈ 115 µg/mL) | 4.58 | – | – | – | – |
| CC[C@H](C)[C@@H]1NC(=O)[C@H](CC(=O)O)NC(=O)[C@]2(CC=CCCCC3(CCCC=CCCCCCC[C@@](C)(C(=O)N[C@@H](Cc4ccccc4OC)C(=O)N[C@@H](Cc4csc5ccccc45)C(=O)N[C@@H](Cc4c[nH]cn4)C(N)=O)NC(=O)[C@H](CC(N)=O)NC(=O)[C@H](Cc4ccccc4)NC(=O)[C@H](C)NC(=O)[C@H](C)NC(=O)[C@H](CCC(=O)O)NC(=O)[C@H](CC(=O)O)NC3=O)NC1=O)CCCN2C(C)=O (stereo partly drawn) [I-512, Ac-PL3-Asp-Ile-B5-Asp-Glu-Ala-Ala-Phe-Asn-S8-2OMeF-BztA-His-NH2] | – | 2.44 | 17 µM (≈ 32.4 µg/mL) | – | – | – | 7.70 | 4.91 |
| COc1ccccc1C[C@H](NC(=O)[C@]12CCN(C1)C(=O)OCCCC=CCCCC1(CCCC=CC[C@]3(CCCN3C(C)=O)C(=O)N[C@@H](CC(=O)O)C(=O)N[C@@H](CC(C)(C)C)C(=O)N1)C(=O)N[C@@H](CC(=O)O)C(=O)N[C@@H](CC(=O)O)C(=O)N[C@@H](C)C(=O)N[C@@H](C)C(=O)N[C@@H](Cc1ccccc1)C(=O)N[C@@H](CC(N)=O)C(=O)N2)C(=O)N[C@@H](Cc1csc2ccccc12)C(=O)N[C@@H](CCC(N)=O)C(N)=O (stereo partly drawn) [I-780, Ac-PL3-Asp-Npg-B5-Asp-Asp-Ala-Ala-Phe-Asn-PyrS2-2OMeF-BztA-Gln-NH2] | 8.05 | 2.08 | – | 4.68 | 50 µM (≈ 97.1 µg/mL) | 4.77 | – | – |
| CC(=O)N1CCC[C@]12CC=CCCCC1(CCCC=CCCCOC(=O)N3CC[C@@](C(=O)N[C@@H](Cc4ccsc4)C(=O)N[C@@H](Cc4csc5ccccc45)C(=O)N[C@@H](CCC(N)=O)C(=O)N[C@@H](CCCCNC(=O)C45CC6CC(CC(C6)C4)C5)C(N)=O)(C3)NC(=O)[C@H](CC(N)=O)NC(=O)[C@H](Cc3ccccc3)NC(=O)[C@H](C)NC(=O)[C@H](C)NC(=O)[C@H](CC(=O)O)NC(=O)[C@H](CC(=O)O)NC1=O)NC(=O)[C@H](CC(C)(C)C)NC(=O)[C@H](CC(=O)O)NC2=O (stereo partly drawn) [I-919, Ac-PL3-Asp-Npg-B5-Asp-Asp-Ala-Ala-Phe-Asn-PyrS2-3Thi-BztA-Gln-[AdamantC]Lys-NH2] | 7.55 | 2.55 | 44 µM (≈ 97.2 µg/mL) | 4.82 | – | – | – | – |
| CC(=O)N1CCC[C@]12CC=CCCCC1(CCCC=CCCCOC(=O)N3CC[C@@](C(=O)N[C@@H](Cc4cccs4)C(=O)N[C@@H](Cc4csc5ccccc45)C(=O)N[C@@H](CCC(N)=O)C(N)=O)(C3)NC(=O)[C@H](CC(N)=O)NC(=O)[C@H](Cc3ccccc3)NC(=O)[C@H](C)NC(=O)[C@H](C)NC(=O)[C@H](CC(=O)O)NC(=O)[C@H](CC(=O)O)NC1=O)NC(=O)[C@H](CC(C)(C)C)NC(=O)[C@H](CC(=O)O)NC2=O (stereo partly drawn) [I-778, Ac-PL3-Asp-Npg-B5-Asp-Asp-Ala-Ala-Phe-Asn-PyrS2-2Thi-BztA-Gln-NH2] | 8.10 | 2.04 | 43 µM (≈ 82.5 µg/mL) | 4.95 | – | – | – | – |
| CC(=O)N1CCC[C@]12CC=CCCCC1(CCCC=CCCCOC(=O)N3CC[C@@](C(=O)N[C@@H](Cc4ccccc4)C(=O)N[C@@H](Cc4csc5ccccc45)C(=O)N[C@@H](CCC(N)=O)C(N)=O)(C3)NC(=O)[C@H](CO)NC(=O)[C@H](Cc3cccc(C(F)(F)F)c3)NC(=O)[C@H](C)NC(=O)[C@H](C)NC(=O)[C@H](CC(=O)O)NC(=O)[C@H](CC(=O)O)NC1=O)NC(=O)[C@H](CC1CCCCC1)NC(=O)[C@H](CC(=O)O)NC2=O (stereo partly drawn) [I-1125, Ac-PL3-Asp-Cha-B5-Asp-Asp-Ala-Ala-3F3MeF-Ser-PyrS2-Phe-BztA-Gln-NH2] | 7.80 | 2.39 | 45 µM (≈ 89.1 µg/mL) | – | – | – | – | < 4.70 |
| CC(=O)N1CCC[C@]12CC=CCCCC1(CCCC=CCCCCCC[C@@](C)(C(=O)N[C@@H](Cc3ccccc3)C(=O)N[C@@H](Cc3csc4ccccc34)C(=O)N[C@@H](CCC(N)=O)C(=O)N[C@H](C)C(N)=O)NC(=O)[C@H](CC(N)=O)NC(=O)[C@H](Cc3ccccc3)NC(=O)[C@H](C)NC(=O)[C@H](C)NC(=O)[C@H](CCC(=O)O)NC(=O)[C@H](CC(=O)O)NC1=O)NC(=O)[C@H](CC(C)C)NC(=O)[C@H](CC(=O)O)NC2=O (stereo partly drawn) [I-731, Ac-PL3-Asp-Leu-B5-Asp-Glu-Ala-Ala-Phe-Asn-S8-Phe-BztA-Gln-dAla-NH2] | – | 2.33 | 48 µM (≈ 93.1 µg/mL) | – | – | – | 7.47 | 4.94 |
